# Laboratory results as given in patent publication US4348264A, “Photocatalyzed process for producing carbapenams and carbapen-2-ems” (Pfizer Inc., priority 1981, dated 1982).
# Legend:
# Type in all cases: cell-based
# Bacillus subtilis = assay: Standard disc-plate method, zone of inhibition; settings: Bacillus subtilis; 25 microgram discs
# Text: (§1) The utility of the various compounds as intermediates to other compounds of the present invention will be evident from the preceding discussion. The antibacterial activity of these compounds, reflecting their utility in the control of susceptible bacterial infections in man and animals, as animal feed additives for promotion of growth, or as preservatives of materials biodegraded by susceptible microorganisms, is best measured by the standard disc-plate method routinely employed in clinical laboratories for determining the sensitivity of microorganisms to antimicrobial substances. Sensitivity discs are prepared by dipping a standard 6.25 mm. paper disc into a solution of the compound to be tested (conc. 1 mg./ml.) in a volatile solvent (e.g. methylene chloride) and the disc dried, producing discs containing approximately 25 microg. of the compound. The discs are placed on the surface of agar growth media seeded with the test microorganism, previously plated into Petri dishes. The plates are incubated overnight at 35°-37° C. Activity of the test compound is reflected by a zone of inhibition of bacterial growth around the test disc. The diameter of this zone provides a quantitative measure of the activity of the antibacterial substance. The activity of various compounds of the present invention is summarized in Table I. For comparison, results obtained with 10 microg. discs of ampicillin and penicillin G are included as positive controls.
# Escherichia coli [1] = assay: Standard disc-plate method, zone of inhibition; settings: Escherichia coli, 25 microgram discs
# Text: as §1
# Micrococcus luteus = assay: Standard disc-plate method, zone of inhibition; settings: Micrococcus luteus; 25 microgram discs
# Text: as §1
# [2] = test system: Staphylococcus aureus (Antibiotic Resistant); assay: Standard disc-plate method, zone of inhibition; settings: Staphylococcus aureus; 25 microgram discs; antibiotic resistant
# Text: as §1
# Staphylococcus aureus [3] = assay: Standard disc-plate method, zone of inhibition; settings: Staphylococcus aureus; 25 microgram discs
# Text: as §1
# Proteus morgani = assay: Serial dilution-tube method, MIC; settings: brain heart infusion broth; read-out: Minimum Inhibitory Concentration
# Citrobacter diversus = assay: Serial dilution-tube method, MIC; settings: Citrobacter koseri; brain heart infusion broth; read-out: Minimum Inhibitory Concentration
# Enterobacter cloacae = assay: Serial dilution-tube method, MIC; settings: Enterobacter cloacae; brain heart infusion broth; read-out: Minimum Inhibitory Concentration
# Serratia marcescens = assay: Serial dilution-tube method, MIC; settings: Serratia marcescens; brain heart infusion broth; read-out: Minimum Inhibitory Concentration
# Klebsiella pneumoniae = assay: Serial dilution-tube method, MIC; settings: Klebsiella pneumoniae; brain heart infusion broth; read-out: Minimum Inhibitory Concentration
# Pseudomonas aeruginosa = assay: Serial dilution-tube method, MIC; settings: Pseudomonas aeruginosa; brain heart infusion broth; read-out: Minimum Inhibitory Concentration
# [4] = test system: Escherichia coli (Antibiotic Resistant); assay: Serial dilution-tube method, MIC; settings: Escherichia coli, brain heart infusion broth, read-out: Minimum Inhibitory Concentration
# Escherichia coli [5] = assay: Serial dilution-tube method, MIC; settings: Escherichia coli; brain heart infusion broth; read-out: Minimum Inhibitory Concentration
# [6] = test system: Staphylococcus aureus (Antibiotic Resistant); assay: Serial dilution-tube method, MIC; settings: Staphylococcus aureus, brain heart infusion broth, read-out: Minimum Inhibitory Concentration
# Staphylococcus aureus [7] = assay: Serial dilution-tube method, MIC; settings: Staphylococcus aureus; brain heart infusion broth; read-out: Minimum Inhibitory Concentration
# Vibrio percolans = assay: Standard disc-plate method, zone of inhibition; settings: Comamonas terrigena, 25 microgram discs
# Text: as §1
Structure (SMILES),zone of inhibition at 25 µg/disc (Bacillus subtilis) [mm],zone of inhibition at 25 µg/disc (Escherichia coli [1]) [mm],zone of inhibition at 25 µg/disc (Micrococcus luteus) [mm],zone of inhibition at 25 µg/disc [2] [mm],zone of inhibition at 25 µg/disc (Staphylococcus aureus [3]) [mm],MIC (Proteus morgani) [µg/mL],MIC (Citrobacter diversus) [µg/mL],MIC (Enterobacter cloacae) [µg/mL],MIC (Serratia marcescens) [µg/mL],MIC (Klebsiella pneumoniae) [µg/mL],MIC (Pseudomonas aeruginosa) [µg/mL],MIC [4] [µg/mL],MIC (Escherichia coli [5]) [µg/mL],MIC [6] [µg/mL],MIC (Staphylococcus aureus [7]) [µg/mL],zone of inhibition at 25 µg/disc (Vibrio percolans) [mm]
"CC(=O)OC1C(C)C(C(=O)OCOC(=O)C(C)(C)C)N2C(=O)C(NC(=O)COc3ccccc3)C12 (stereo not shown) [PMA H POM CH3 H OAc I, Pivaloyloxymethyl 1-Acetoxy-2-methyl-6-(2-phenoxyacetamido)carbapenam-3-carboxylate]",16,0,0,0,11,> 200,> 200,> 200,> 200,> 200,> 200,> 200,> 200,> 200,> 200,
"CC1=C(C(=O)OCOC(=O)C(C)(C)C)N2C(=O)CC2C1=O (stereo not shown) [H H POM CH3 O II, Pivaloyloxymethyl 2-Methyl-1-oxocarbapen-2-em-3-carboxylate]",37,0,26,18,22,> 200,> 200,> 200,> 200,> 200,> 200,> 200,> 200,> 200,> 200,14
